Legend:
[1] = system: DLD1 cells; test: Cell cycle analysis (BrdU/7-AAD flow cytometry), DLD1; assay type: cell-based
Experimental: (§1) For cell cycle analysis, the cells were treated with Α3373 or 5-FU. The cells were labeled with 10 μΜ bromodeoxyuridine (BrdU) for 2 h. Subsequently, the cells were stained with 7-aminoactinomycin D (7-AAD, Invitrogen) and a fluorescein isothiocyanate (FITC)-conjugated anti-BrdU antibody (Invitrogen). Apoptotic cells were detected using an Annexin V-FITC Apoptosis Detection Kit (BD Biosciences). The cells were analyzed using BD FACSAria III (BD Biosciences), and data analysis was performed using FlowJo v10.0 (BD Biosciences).

[2] = Single oral dose toxicity in mice; conditions: female and male mice
[3] = system: MC38-GFP-Luc cells; test: Colon cancer orthotopic model (MC38-GFP-Luc in cecum); assay type: in vivo, mouse
Experimental: GFP-luciferase expressing MC38 murine CRC (MC38-GFP-Luc) cells were cocultured with bone marrow-derived macrophages (BMDMs). After 48 h, the macrophages were isolated and incubated with naïve T cells from the splenocytes of wild-type mice to generate CD8^+ T cells. The activated CD8^+ T cells were sorted using BD FACSAria III, added to wells containing MC38-GFP-Luc cells and titrated to effector cells (E) and the target cell (T) ratio (E/T ratio). Four hours later, CD8^+ T-cell-mediated killing of MC38-GFP-Luc cancer cells in each well was monitored using a luciferase-based bioluminescence imaging system.
Supplementary materials and methods […]
A colon cancer orthotropic model was established using 6- weeks-old C57BL/6 male mice.
Mice were administered a single IP injection of 2,2,2-Tribromoethanol (Avertin, Sigma - aldrich), an an esthetic . T he abdomen was shaved and the surgi cal site was draped in a sterile […]
manner. The incision was extended to 2–3 cm, and the cecum was exposed. 2 × 10^5 MC38-GFP-Luciferas e cells were suspended in 50 µL PBS and injected into the cecum. Seven days after cell injection, 10 mg/kg A3373 was orally administered to the mice daily for 4 weeks. […]
All mice wer e housed at 2 5°C under a 12:12 hou rs light/dark cycle. All animal procedu res were performed in accordance with the institutional guidelines for animal research and were approved by the Institutional Animal Care and Use Committee of Yonsei University (IACUC- […]
In a colon cancer orthotropic model, tumor-infiltrating lymphocytes (TILs) were isolated from the tumor tissue 30 days after cell injection. Tumors wer e en zymatically di ssociated in RPMI media containing 10% FBS, 200 mg/mL collagenase IV (Sigma- Aldrich), 20 mg/mL hyaluronidase (Sigma-Al drich), and 20 mg/mL DNase I (Sigma Aldrich) at 37 ℃ with stirring.
After 20 minutes of incubation, 0.1 M EDTA was added to prevent clumping. Cells were filtered through a 40 µm nylon mesh, single-cell suspensions were counted and used for the experiments. Finally, the TILs were resuspended in PBS containing 1% FBS. For the distribution of immune cells, anti- mouse CD45 microbeads were us ed according to the manufacturer’s instructions (Miltenyi Biotech). Isolated tumor cells were cultured for one passage to change the immunocompromised phenotype and assessed using flow cytometry.
Splenocytes were isolat ed from mouse spleens, seeded at 5× 10^6 cells, and stimulated with 10 µg/mL MC38 GFP-Luciferase cell lysates. For intracellular cytokine staining, cells were […]

[4] = system: DLD1 cells; test: Sphere formation assay; assay type: cell-based; conditions: limiting dilution assays
Experimental: DLD1 cells were cultured in DMEM/F-12 with epidermal growth factor (20 ng/mL), basic fibroblast growth factor (20 ng/mL), and B27 supplements in noncoated dishes. For serial passaging, the sphere cells were dissociated into single cells with Accutase (Invitrogen) once every 4–7 days and incubated. After the secondary generation, the DLD1 sphere cells were used for the experiments. […] The cells were fixed with 4% paraformaldehyde, and sphere formation was calculated from 10 positions in each well by an Olympus BX53 microscope and cellSens image acquisition software (Olympus).

[5] = system: FHC cells; test: Cell cycle analysis (BrdU/7-AAD flow cytometry), FHC; assay type: cell-based; conditions: FHC normal fetal colonic mucosa cells
Experimental: as §1

[6] = system: CRC cells; test: Measurement of extracellular ATP; assay type: cell-based
Experimental: For the quantitative determination of extracellular ATP, the cells were treated with Α3373. Extracellular release of ATP was assessed using the ENLITEN ATP Assay kit (Promega) according to the manufacturer’s instructions. For the HMGB1 level measurement, the supernatants of the cells were prepared by removing insoluble materials by centrifugation at 10,000 × g for 3 min at 4 °C. The levels of HMGB1 were measured using an HMGB1 detection kit (Chondrex) according to the manufacturer’s instructions.

[7] = mesenteric lymph nodes, vs vehicle

O=C(Nc1cc(C(F)(F)F)cc(C(F)(F)F)c1)c1cc2cc(F)ccc2[nH]1 [Compound A3373]
cell cycle / proliferation of CRC cells, in words [1]: significantly decreased the proliferation of CRC cells | approximate lethal dose [2]: over 2000 mg/kg | active caspase-3 and Ki67 in tumor tissues (IHC) ([3]; 10 mg/kg every day for 4 weeks): increased levels of active caspase-3 and reduced levels of Ki67 | mortality and tumor weight ([3]; 10 mg/kg every day for 4 weeks, vs vehicle): significant reduction in mortality and tumor weight | CD8+ T-cell-mediated killing, luciferase activity ([3]; MC38-GFP-Luc cells derived from treated mice, vs vehicle): significantly lower luciferase activity | population of GFP+CD11b+ BMDMs, in words ([3]; coculture with MC38-GFP-Luc cells isolated from tumors): significantly increased the population of GFP^+CD11b^+ BMDMs | CD107a+ granzyme B+ and FasL+IFNγ+ CD8+ T cells ([3]; mesenteric lymph nodes restimulated with MC38-GFP-Luc lysates, vs vehicle): increased population of CD107a^+ granzyme B^+ and FasL^+IFNγ^+ CD8^+ T cells | Foxp3+ cells in the CD4+ TCRβ+ gate [3, 7]: decreased population of Foxp3^+ cells | IFNγ+ and IL17a+ in CD4+ T cells [3, 7]: significantly increased the population of IFNγ^+ and IL17a^+ in CD4^+ T cells | sphere-forming capacity [4]: significantly decreased the sphere-forming capacity | cell cycle / S phase in FHC cells, in words [5]: had no effect on FHC cells | extracellular ATP, in words [6]: significantly increased extracellular ATP

Source: PMC9535023, “Inhibition of phospholipase D1 induces immunogenic cell death and potentiates cancer immunotherapy in colorectal cancer” (Experimental & Molecular Medicine, 2022)
